According to ChEMBL document CHEMBL1201862, “PubChem BioAssay data set” (2004):
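Growth conditions: 96-well plates. Treatment: test compound, 48 hours, 5 concentrations. Analysis: linear interpolation between bracketing concentrations; unreached endpoints set to highest concentration. GI50 is the concentration that inhibits growth by half.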 Active and inactive are the calls of the source. No stated cut-off is given here; in the data, active = GI50 up to about 1.1 µM and inactive = higher.

Key:
Experiment in all cases: inhibition of tumour cell growth, NCI panel, 48 h
ACHN = tested on: ACHN
MDA-MB-435 = tested on: MDA-MB-435
HCT-15 = tested on: HCT-15
SNB-19 = tested on: SNB-19
MDA-MB-231 = tested on: MDA-MB-231
HCT-116 = tested on: HCT-116
NCI/ADR-RES = tested on: NCI/ADR-RES
NCI-H23 = tested on: NCI-H23
OVCAR-8 = tested on: OVCAR-8
OVCAR-3 = tested on: OVCAR-3
NCI-H522 = tested on: NCI-H522
MDA-N = tested on: MDA-N
HOP-62 = tested on: HOP-62
Hs-578T = tested on: Hs-578T
SK-MEL-28 = tested on: SK-MEL-28
U-251 = tested on: U-251
MOLT-4 = tested on: MOLT-4
RXF 393 = tested on: RXF 393
SF-539 = tested on: SF-539

Row | Structure (SMILES) | GI50 (ACHN) | GI50 (MDA-MB-435) | GI50 (HCT-15) [µM] | GI50 (SNB-19) | GI50 (MDA-MB-231) | GI50 (HCT-116) | GI50 (NCI/ADR-RES) | GI50 (NCI-H23) | GI50 (OVCAR-8) | GI50 (OVCAR-3) | GI50 (NCI-H522) | GI50 (MDA-N) | GI50 (HOP-62) | GI50 (Hs-578T) | GI50 (SK-MEL-28) | GI50 (U-251) | GI50 (MOLT-4) | GI50 (RXF 393) | GI50 (SF-539)
1 | CCOC(=O)/C(=C\c1ccc(CO)o1)P(=O)(OCC)OCC | 61.1 µM (inactive) | 29 µM (inactive) | 18.4 | 63.2 µM (inactive) | 31.7 µM (inactive) | 24.4 µM (inactive) | 22.2 µM (inactive) | 22.3 µM (inactive) | > 10 µM (inactive) | 18.9 µM (inactive) | 3.88 µM (inactive) | 22.8 µM (inactive) | 45.8 µM (inactive) | 36.1 µM (inactive) | 30.7 µM (inactive) | 42.4 µM (inactive) | 56.8 µM (inactive) | 34.3 µM (inactive) | 19.7 µM (inactive)
2 | CN(/N=C/c1ccccc1O)c1ccc2ccccc2n1 | 25.4 µM (inactive) | 44.4 µM (inactive) | 12.5 | 16.7 µM (inactive) | 29.8 µM (inactive) | 48.3 µM (inactive) | 22.4 µM (inactive) | 17.1 µM (inactive) | 33.8 µM (inactive) | 19.5 µM (inactive) | 24.9 µM (inactive) | 52.2 µM (inactive) | 16.4 µM (inactive) | 26.7 µM (inactive) | 65.9 µM (inactive) | 16.3 µM (inactive) | 24 µM (inactive) | 30.8 µM (inactive) | 22.6 µM (inactive)
3 | Cc1n[nH]c(=O)n1C1CC1 | > 100 µM (inactive) | > 100 µM (inactive) | > 100 | > 100 µM (inactive) | > 100 µM (inactive) | > 100 µM (inactive) | > 100 µM (inactive) | > 100 µM (inactive) | > 100 µM (inactive) | > 100 µM (inactive) | > 100 µM (inactive) | > 100 µM (inactive) | > 100 µM (inactive) | > 100 µM (inactive) | > 100 µM (inactive) | > 100 µM (inactive) | > 100 µM (inactive) | > 100 µM (inactive) | > 100 µM (inactive)
4 | Cc1ccc(NC(=S)N/N=C2\C(=O)Nc3ccccc32)cc1 | 61.5 µM (inactive) | > 100 µM (inactive) | > 100 | > 100 µM (inactive) | > 100 µM (inactive) | > 100 µM (inactive) | 51.3 µM (inactive) | > 100 µM (inactive) | > 100 µM (inactive) | > 100 µM (inactive) | > 100 µM (inactive) | > 100 µM (inactive) | > 100 µM (inactive) | > 100 µM (inactive) | 4.76 µM (inactive) | > 100 µM (inactive) | > 100 µM (inactive) | 84.7 µM (inactive) | > 100 µM (inactive)
5 | CCCCCCCCCCCCC/C=C(/COCC[N+](C)(C)C)OC(C)=O.CCCCCCCCCCCCCC/C(=C/OCC[N+](C)(C)C)OC(C)=O | 1.65 µM (inactive) | 2.58 µM (inactive) | 3.43 | 1.47 µM (inactive) | 1.78 µM (inactive) | 0.643 µM (active) | 17.6 µM (inactive) | 1.9 µM (inactive) | 0.944 µM (active) | 1.61 µM (inactive) | 1.87 µM (inactive) | 3.07 µM (inactive) | 1.65 µM (inactive) | 1.91 µM (inactive) | 6.5 µM (inactive) | 1.19 µM (inactive) | 2.29 µM (inactive) | 0.716 µM (active) | 1.85 µM (inactive)
6 | Fc1ccc(C(OCCN2CCC3CCC(C2)N3C/C=C/c2ccco2)c2ccc(F)cc2)cc1 (stereo not drawn) | 12.7 µM (inactive) | 10.7 µM (inactive) | 5.09 | 15.7 µM (inactive) | 11.1 µM (inactive) | 4.91 µM (inactive) | 7.4 µM (inactive) | 11.3 µM (inactive) | 5.83 µM (inactive) | 11.4 µM (inactive) | 7.23 µM (inactive) | 12.4 µM (inactive) | 16.2 µM (inactive) | 14.7 µM (inactive) | 6.46 µM (inactive) | 8.59 µM (inactive) | 4.78 µM (inactive) | 4.4 µM (inactive) | 14.1 µM (inactive)
7 | CC(C)(C)C1CCC2c3c([nH]c4ccccc34)C3C(=O)N(c4ccc([N+](=O)[O-])cc4)C(=O)C3C2C1 (stereo not drawn) | 36.6 µM (inactive) | 28.1 µM (inactive) | 18.1 | 22 µM (inactive) | 17.8 µM (inactive) | 8.09 µM (inactive) | 14.9 µM (inactive) | 10.3 µM (inactive) | 19 µM (inactive) | 10.7 µM (inactive) | 12.5 µM (inactive) | 28.5 µM (inactive) | 16.4 µM (inactive) | 11.4 µM (inactive) | 96.6 µM (inactive) | 15.6 µM (inactive) | 5.28 µM (inactive) | 10.4 µM (inactive) | 20.7 µM (inactive)
